In patent publication US4272507A, “Phenylaminothiophenacetic acids, their synthesis, compositions and use” (priority 1978, dated 1981):
Like-named read-outs stand apart in the source and are kept apart here.

Columns and labels:
[1] = versus phenylbutazone; cited from earlier work
[2] = versus phenylbutazone; cited from earlier work; remark: listed apart in the source
[3] = in vivo; settings: rat, po
[4] = test system: formation of granulation tissue after subcutaneous implantation of cotton; assay: Chronic antiphlogistic action: cotton pellet test (formation of granulation tissue) in rats; settings: rats; for Therapeutic quotient LD50/ED20: cotton pellet test, LD50 7 days oral; for Inhibition of the formation of granulation tissue after treatment for 7 days: sodium salt
Experimental: (§1) Biol. Med., 111 (1962) 544]}, on chronic inflammatory processes {Cotton pellet test on rats [Winter et al.: J. Pharmacol. exp. Therap., 141 (1963) 369]} and on adjuvant arthritis [based on the method of Perrine et al., Brit. J. Pharmacol., 21 (1963) 127] is determined.
(§2) Experimental procedure for investigating the influence of the compounds to be tested on the formation of granulation tissue after implantation of cotton in rats (so-called cotton pellet method):
(§3) 1 cotton pellet (manufacturer: Messrs. Hartmann/Heidenheim; cotton pellets size 2, No. 4865/2) which weighs 13.0±0.5 mg and has been impregnated beforehand with 0.1 ml of a solution of 0.5 mg of penicillin G and 0.8 mg of streptomycin sulfate/1 ml of distilled water is in each case implanted subcutaneously into the shoulder-blade region, on both sides, of male Sprague-Dawley rats (groups of 8 animals each; weight of each animal: 150 to 170 g) under diethyl ether anaesthesia and under sterile conditions. The cut skin is closed by means of clamps.
(§4) The compounds to be tested (in the form of the sodium salt in aqueous solution) or the corresponding amount (5 ml/kg/day) of tapwater (=control group) are administered orally each day on seven successive days. On the eighth day, the animals are killed and the cotton granules are exposed carefully, that is to say preserving the fibrous tissue capsule, dried (15 hours at 120°) and weighed. By substracting the weight of the cotton pellets, the amount of newly formed granulation tissue is obtained.
(§5) The percentage reduction in the average granuloma dry weight of a treated group compared with the control group (=100%) serves as a measure of the antiproliferative action of a compound.

[5] = as above; settings: rat, in vivo, po
Experimental: as §1, §2, §3, §4, §5

[6] = test system: pain reaction provoked in rats by bending an inflamed ankle (AgNO3 arthritis); assay: animal or person; format: in vivo; settings: for Therapeutic quotient LD50/ED50 / therapeutic quotient LD50/ED25: AgNO3 arthritis pain, LD50 7 days oral; for Therapeutic quotient LD50/ED50 / therapeutic quotient LD50/ED25 / ED50 / Inhibition of the pain reaction: rats; for ED25 / ED50: Rattus norvegicus, po; for ED25: read-out: ED25 (dose which completely suppresses the pain reaction in 25% of the animals); for ED50: perorally, at the time of maximum action, read-out: ED50 (dose which completely suppresses the pain reaction in 50% of the animals)
Experimental: Based on the method of HOFFMEISTER et al. [Arzneim. Forsch., 24, (1974) 600], 0.2 ml of a 1% strength silver nitrate solution is injected into the ankle joint (inside) of the right hind paw of female Sprague-Dawley rats (each animal weighing about 160 to 180 g) under ether anaesthesia. The animals are kept at 24° C. and are fed Altromin®R and water ad libitum. After the AgNO3 injection, almost all the animals (90 to 95%) can be made to cry out by moderate bending of the ankle joint. All the animals reacting positively are collected into groups of 10 animals. The compounds to be tested are administered orally in a volume of liquid of 10 ml/kg immediately after administration of the AgNO3; the untreated control animals receive the corresponding amount of tapwater.
Over a period of 4 hours after administration of the substance, the number of animals reacting is determined at half hourly intervals.
The maximum percentage of the protected animals over a period of 4 hours after administration of the substance [relative to the number of animals in the control group reacting (=100%)] serves as a measure of the analgesic action.

[7] = test system: adjuvant arthritis in rats; assay: Antiarthritic action: adjuvant arthritis in rats (Mycobacterium butyricum); settings: for ED25: Rattus norvegicus, po, 120 h, read-out: ED25 (inhibition of adjuvant arthritis of 25%); for therapeutic quotient LD50/ED25: adjuvant arthritis, LD50 7 days oral, rats
Experimental: as §1
The influence of the compounds to be tested on polyarthritis in rats caused by Mycobacterium butyricum (so-called "adjuvant arthritis") was determined using the experimental arrangement hereafter described: based on the method described by NEWBOULD and PERRINE et al. [NEWBOULD, B. B.; Brit. J. Pharmacol. 21, 127 (1963); and PERRINE, J. W. and TAKESUE, E. I.; Arch. int. Pharmacodyn., 174, 192 to 198 (1968)], so-called adjuvant arthritis, which manifests itself chiefly in a severe swelling of the tail (primary lesion) and of the paws (secondary lesion), is caused in rats by intradermal injection of a Mycobact. butyricum suspension in liquid paraffin into the base of the tail. Antiphlogistic agents inhibit this swelling reaction.

[8] = test system: yeast-induced fever in rats; assay: Antipyretic action: yeast-induced fever in rats; format: in vivo, rats (female Sprague-Dawley); settings: for ED (1.5 degC): Rattus norvegicus, po, read-out: ED1.5 (dose which causes a maximum reduction in yeast-induced fever of 1.5° C.)
Experimental: The antipyretic action is determined by the influence of the compounds to be tested on yeast-induced fever in rats.
Hyperthermia is produced in female Sprague-Dawley rats (in groups of 5 animals; weight of each animal: 160 to 180 g) by subcutaneous injection (neck) of 10 ml/kg of a 20 percent strength aqueous brewer's yeast suspension (brewer's yeast "Heliosan"/Hefereformwerk Radolfzell). 24 hours after the yeast injection, the compounds to be tested are administered orally to the animals in a volume of liquid of 5 ml/kg, and a control group receives the corresponding amount of tapwater. The feed (Altromin®R, water ad libitum) was withdrawn from the rats 18 hours beforehand. The rats are kept at about 23° C.
The body temperature is recorded 1 hour before administration of the substance and at hourly intervals after administration of the substance.
[…] The body temperature is measured with a temperature probe (Tastomed H, Braun electronic).

[9] = test system: carrageenin edema of the hind paw of rats; assay: Acute antiphlogistic action: carrageenin edema of the hind paw of rats after single oral administration; settings: for ED50: Rattus norvegicus, po, read-out: ED50 (dose which causes a maximum edema inhibition of 50%); for Therapeutic quotient LD50/ED50: carrageenin edema, LD50 7 days oral; for Therapeutic quotient LD50/ED50 / Maximum inhibition of carrageenin edema within 7 hours after oral administration: rats
Experimental: as §1
The influence of the compounds to be tested on carrageenin edema of the hind paw of rats was determined as follows:
The rats are kept at 24° C.
The paw volume of each rat is determined (2 to 3 individual measurements in each case) before edema provocation and at hourly intervals for 7 hours after edema provacation. The average percentage paw swelling of each treated group determined at the specified times after the carrageenin injection is related to that of the untreated control group (=100%).
The maximum percentage edema inhibition serves as a measure of the antiphlogistic action.
The paw volume is determined plethysmometrically. Measuring principle: the volume of liquid displaced through the paw of the rat is recorded digitally via an electromechanical pressure transducer (Statham P 23 V, 0-200 mm Hg).
The doses indicated for the compounds tested were administered in a volume of liquid of 20 ml/kg.

| Compound | LD50 at 168 h [3] [mg/kg] | Therapeutic quotient LD50/ED20 [4] | Inhibition of the formation of granulation tissue after treatment for 7 days ([4]; 7 x 0.1 mg/kg/day orally) [%] | Inhibition of the formation of granulation tissue after treatment for 7 days ([4]; 7 x 0.3 mg/kg/day orally) [%] | Inhibition of the formation of granulation tissue after treatment for 7 days ([4]; 7 x 1.0 mg/kg/day orally) [%] | Inhibition of the formation of granulation tissue after treatment for 7 days ([4]; 7 x 3.0 mg/kg/day orally) [%] | Therapeutic quotient LD50/ED50 [6] | therapeutic quotient LD50/ED25 [6] | ED25 [6] [mg/kg] | ED50 [6] [mg/kg] | Inhibition of the pain reaction ([6]; single oral dose 1 mg/kg) [%] | Inhibition of the pain reaction ([6]; single oral dose 3 mg/kg) [%] | ED25 [7] [mg/kg/day] | therapeutic quotient LD50/ED25 [7] | Maximum reduction in yeast-induced fever over a period of 7 hours ([8]; rats, single oral dose 1 mg/kg) [°C] | ED50 [9] [mg/kg] | Therapeutic quotient LD50/ED50 [9] | Maximum inhibition of carrageenin edema within 7 hours after oral administration ([9]; single oral dose 1.0 mg/kg) [%] | Maximum inhibition of carrageenin edema within 7 hours after oral administration ([9]; single oral dose 3.0 mg/kg) [%] | further results |
| --- | --- | --- | --- | --- | --- | --- | --- | --- | --- | --- | --- | --- | --- | --- | --- | --- | --- | --- | --- | --- |
| Cc1cccc(Nc2cscc2C(=O)O)c1C [2,3-dimethylphenyl compound] | – | – | – | – | – | – | – | – | – | – | – | – | – | – | – | – | – | – | – | antiphlogistic action [1]: comparable to that of phenylbutazone; antipyretic action [2]: superior |
| COc1ccc2c(c1)c(CC(=O)O)c(C)n2C(=O)c1ccc(Cl)cc1 [Compound 2, indomethacin, reference compound] | 5.5 | ~ 1.8 | 7 | 11 | 16 | 16 | 0.92 | 4.58 | 1.2 | 6 | 23 | 36 | 0.18 | 30.6 | 0.2 | 4.6 | 1.2 | 29 | 47 | Inhibition of the formation of granulation tissue after treatment for 7 days ([4]; 7 x 4.0 mg/kg/day orally): 17%; mortality at 168 h ([5]; 5 mg/kg/day): 25%; Inhibition of the pain reaction ([6]; single oral dose 6 mg/kg): 50%; ED (1.5 degC) [8]: 5 mg/kg; Maximum reduction in yeast-induced fever over a period of 7 hours ([8]; rats, single oral dose 3 mg/kg): 0.7 °C; Maximum reduction in yeast-induced fever over a period of 7 hours ([8]; rats, single oral dose 6 mg/kg): 1.8 °C; Maximum inhibition of carrageenin edema within 7 hours after oral administration ([9]; single oral dose 10.0 mg/kg): 56% |
| O=C(O)Cc1cscc1Nc1c(Cl)cccc1Cl [Compound 3, 4-(2,6-dichloroanilino)-3-thiophenacetic acid] | 11 | ~ 11 | 6 | 15 | 14 | 22 | 3.67 | 11 | 1 | 3 | 26 | 50 | 0.2 | 55 | 1.7 | 1.6 | 6.9 | 46 | 56 | Inhibition of the formation of granulation tissue after treatment for 7 days ([4]; 7 x 5.0 mg/kg/day orally): 22%; Inhibition of the formation of granulation tissue after treatment for 7 days ([4]; 7 x 6.0 mg/kg/day orally): 36%; mortality at 168 h ([5]; 6 mg/kg/day): 0%; Inhibition of the pain reaction ([6]; single oral dose 10 mg/kg): 62%; ED (1.5 degC) ([8]; rats, perorally, single dose): 0.4 mg/kg; Maximum reduction in yeast-induced fever over a period of 7 hours ([8]; rats, single oral dose 0.03 mg/kg): 0.4 °C; Maximum reduction in yeast-induced fever over a period of 7 hours ([8]; rats, single oral dose 0.1 mg/kg): 0.8 °C; Maximum reduction in yeast-induced fever over a period of 7 hours ([8]; rats, single oral dose 0.3 mg/kg): 1.4 °C; Maximum inhibition of carrageenin edema within 7 hours after oral administration ([9]; single oral dose 0.3 mg/kg): 29% |
